Measured values: doi:10.1101/2025.02.17.638454, “Synergistic RAS-MAPK and AKT Activation in MYC-Driven Tumors via Adjacent PVT1 Rearrangements” (bioRxiv, 2025)
No end group written: not given here.

How the values were obtained:
[1] = system: phospho-MEK1/2, phospho-ERK1/2, phospho-p90RSK (RAS/MAPK pathway); assay: Western blot of RAS/MAPK effectors in NCI-H1792; format: cell-based; settings: NCI-H1792 (mutant KRAS^G12C), doxycycline-induced HNB, 1 μg/mL Dox 48 h
Protocol: (§1) For whole-cell lysate, the cell pellet was resuspended in RIPA buffer (Cell Signaling Technologies, Danvers, MA) supplemented with a protease inhibitor cocktail (Cell Signaling Technologies) and incubated on ice for 20 minutes. The lysate was then centrifuged at 14,000 revolutions/minute for 10 minutes at 4°C, and the supernatant was harvested. Protein concentration was quantified by BCA Protein Assay Kit (Thermo Fisher Scientific) as per kit protocol. Next, 20 μg of whole-cell lysate was electrophoresed on a 4%–20% gradient polyacrylamide gel with SDS (Bio-Rad, Hercules, CA) and electroblotted onto polyvinylidene difluoride membranes (Bio-Rad). Membranes were blocked in Tris-buffered saline with 5% nonfat milk and 0.1% Tween and probed with antibodies. Bound proteins were detected with horseradish-peroxidase–conjugated secondary antibodies (Cell Signaling Technologies) and SuperSignal West Femto (Thermo Fisher Scientific). […]
(§2) The HNB ORF and eGFP (control) were cloned in an inducible lentivirus expression, TRE-gateway plasmid (pLIX_403, Addgene, #41395). […] The protein lysates were collected and quantified using the previously described protocol. […] Bound proteins were detected with horseradish-peroxidase–conjugated secondary antibodies (Cell Signaling Technologies) and SuperSignal West Femto (Thermo Fisher Scientific). […]

[2] = system: phospho-MEK1/2, phospho-ERK1/2, phospho-p90RSK (RAS/MAPK pathway); assay: Western blot of RAS/MAPK effectors in D458; format: cell-based
Protocol: as §1, §2

[3] = system: FFX; assay: Western blot of FFX in D458; format: cell-based, human; settings: D458, siRNA vs si.Ctrl, anti-FFX antibody
Protocol: as §1

Row | Substance | phosphorylation of MEK1/2, ERK1/2 and p90RSK [1] | phosphorylation of MEK1/2, ERK1/2 and p90RSK ([2]; D458 (wild type KRAS), doxycycline-induced HNB, 1 μg/mL Dox 48 h, n=3, unpaired t-test) | ERK1/2 phosphorylation ([2]; D458, ectopic (doxycycline-inducible) expression, HNB vs mutant, Figure 5L) | FFX protein expression [3]
1 | MKTQLGAVKGFLHV [HNB] | significantly dampened the phosphorylation | significantly dampened the phosphorylation | significantly diminished ERK1/2 phosphorylation | 
2 | si.CircPVT1: siRNA targeting the junction sequence of CircPVT1, 5’-UGGGCUUGAGGCCUGAUCUUU-3’ (other strand not given here) |  |  |  | significantly reduced the protein
